{
  "source": "patent US3931396A",
  "about": "“Method of preparation of a composition having a base of 99^m technetium for diagnosis by scintigraphy” (priority 1974, dated 1976)",
  "key": {"bone": {"tested_on": "bone", "assay": "Bone scintigraphy, pyrophosphate compared to polyphosphate", "format": "in vivo", "settings": "as compared to polyphosphates, in words", "protocol": "The animal was anesthetized with ethylcarbamate after injection and immediately before scintigraphy was carried out. Scintigraphy was carried out after 5 minutes, 1 hour, 2 hours and 4 hours following injection. Two recording methods were applied:\na. conventional scanning,\nb. scanning, followed by information treatment for calculating surface activities."}, "pyrophosphatases": {"tested_on": "pyrophosphatases", "settings": "cited from earlier work"}},
  "data": [
    {"smiles": "O=P(O)(O)OP(=O)(O)O", "note": "[pyrophosphate]", "values": [
      {"measurement": "time-period before bone scintigraphy (required by elimination from organs)", "setting": "bone", "result": "shorter than in the case of polyphosphates"},
      {"measurement": "hydrolysis by pyrophosphatases", "setting": "pyrophosphatases", "result": "rapid hydrolysis"}
    ]}
  ]
}
